Laboratory results reported in US20160000127A1, “MANGO FLAVOR COMPOSITIONS” (MARS, INCORPORATED, priority 2013, published 2016).

What was measured:
[1] = Aroma extract dilution analysis (AEDA) by GC-O of aroma isolates of fresh mango cultivars; conditions: GC-O on FFAP column; for FD factor RS: Royal Special (RS) mango cultivar aroma isolate; for FD factor PS: Praya Sowoy (PS) mango cultivar aroma isolate; for FD factor H: Haden (H) mango cultivar aroma isolate, highest dilution at which the aroma was detectable; for FD factor WA: White Alfonso (WA) mango cultivar aroma isolate; for FD factor M: Malindi (M) mango cultivar aroma isolate
Text: The presently disclosed subject matter was developed in part by analytical analyses on regional mangos performed to avoid overlooking any key compounds that can greatly influence the natural flavorings. To overcome the lack of distinct cultivar flavors available for true-fruit mango tastes, the presently disclosed subject matter has created a flavor system using aroma extract dilution analysis (AEDA) on fresh fruit from various mango cultivars. In addition, sensory experiments with the flavor compositions of the formulas given together with omission experiments were used to determine the relative importance of some of the components in the manufactured flavorings. A Flavor Dilution (FD)-chromatogram of the odorants was obtained for the odorants perceived in aroma extracts of various mango samples. FD-factors reflect the highest dilution at which a substance is still smelled and these are typically determined by AEDA.
AEDA is known as a powerful screening method used for the detection of aroma compounds, which combines a quantitative gas chromatography olfactometry (GCO) procedure for determining the potency of odorants in food. Using FD values from the AEDA tests, a base flavor system using compounds found in all the cultivars was created. Next, cultivars were characterized by their differences and cultivar components were designed by combining compounds identified as contributing to the distinct differences. The base and cultivar flavors were confirmed by creating a flavor system and testing the flavor system in a model confectionery product.
Volatile compounds are extracted from the fruit samples. For example, compounds are extracted with diethyl ether and an aroma isolate was prepared via high vacuum distillation. The aroma isolate was then serially diluted to a range of dilutions from 2 to 1,024. The various dilutions are then analyzed by GCO.
The FD factor data depict the highest dilution at which an odorant is still detectable by GCO. FD factors are relative measurements. The measurement is the ratio of the initial concentration to its most dilute extraction. Such measurements are proportional to a compounds odor activity value (OAV), which is the ratio of the concentration to an odor threshold in the air.
Fresh ripe mangos were peeled, the seed was removed, and the flesh was cut into small 4 cm^3 sections. The sections were immediately frozen in liquid nitrogen, ground into a fine powder with a laboratory mill and sequentially extracted with freshly distilled diethyl ether (1×100 mL; 1×50 mL) on an autoshaker at room temperature for 10 minutes. After centrifugation (5000 rpm for 5 minutes), the supernatants were combined and the residue was discarded. The organic layer was then separated in a separatory funnel and the aqueous layer was discarded. The ether extract (total volume: 150 mL) was then subjected to high-vacuum distillation using the SAFE technique (Engel, W.; Bahr, W.; Schieberle, P., Solvent assisted flavour evaporation—a new and versatile technique for the careful and direct isolation of aroma compounds from complex food matrices. European Food Research and Technology 1999, 209, 237-241.). The distillation apparatus was thermostated at 40° C. and kept under high vacuum (10-5 mbar). The sample was dropped into the extraction flask of the apparatus over 40 minutes, after which the extraction was continued for an additional 30 minutes. At the completion of the extraction time, the vacuum was broken and the collection flask was removed. The sample was thawed at room temperature and dried over anhydrous sodium sulfate. The sample was then concentrated to approximately 2 ml using a Vigreux column (50×1 cm) held at 50° C. and finally concentrated (total volume: 200 uL) under a gentle stream of nitrogen. The aroma quality of the isolate was then evaluated to ensure that it closely matched the odor quality of the fresh ripe mango flesh.
An Agilent 6890 series GC system was used for GC-O analysis. […]

[2] = cited from earlier work; for recog. ppb: Table 21, odor thresholds from literature (footnotes a-g); for recognition (ppb) / detection (ppb): Table 8, representative threshold level; for recognition (ppb): point at which a specific taste is recognizable; for detection (ppb): point at which a taste is detected compared to a control such as water
[3] = Odor threshold levels (recognition and detection) of odorants; conditions: Tables 1-5, relative to the other odorants of the same group
Text: As used herein, “threshold level” relates to an amount at which a flavor is detected or recognized. A detection level is the point at which a taste is detected as compared to a control such as water. A recognition level is the point at which a specific taste is recognizable.
Additional measurements can be used as a proxy for potency, whereby similar calculations can be configured to prepare a base blend. For example, threshold levels can be used to determine a reference point for potency. For example, threshold levels include detection levels, where a taste is detected in comparison to a control, for example water. Threshold levels also include recognition levels whereby a taste is specifically recognized, which is generally a higher level than a mere detection level. The threshold levels achieve an equivalent organoleptic effect whereby a specific target is either detectable or recognized.
By way of example, the following table provides representative threshold levels in ppb for both detection and recognition levels.
The specific odorant listed has been categorized one of the highest potency odorants within the noted class. As such, the highest potency relates to the littlest amount to be used in the composition. Therefore, relative potencies are then computed by orders of magnitude as detailed in the above Table. Additional threshold levels are discussed below in Example 4.
The following Example provides odor thresholds of weakest and strongest odorants with the different aroma groups, as well as alternative compounds for the first tier of odorants. These odorants are representative in defining the unique sensory attributes of the aroma isolates of the different cultivars.

CC(=O)CCC1=C(C)CCCC1(C)C [dihydro-β-ionone]
FD factor RS [1]: 128

CCCCCC/C=C/C=O [(E)-2-nonenal]
FD factor PS [1]: 128 | recog. ppb [2]: 0.4 ppb

CC/C=C/CC=O [(E)-3-hexenal]
FD factor PS [1]: 512 | recog. ppb [2]: 160 ppb

CCOC(=O)C(C)CC (stereo not drawn) [ethyl-2-methybutanoate]
FD factor H [1]: 512 | potency within odorant group (footnote *) [3]: *Most potent | recognition (ppb) [2]: 0.063 ppb | detection (ppb) [2]: 0.013 ppb | recog. ppb [2]: 0.063 ppb

C=C/C=C/C=C\CCCCC [1-(E,Z)-3,5-undecatriene]
FD factor H [1]: 512 | FD factor WA [1]: 512 | potency within odorant group (footnote *) [3]: *Most potent | recognition (ppb) [2]: 0.003 ppb | recog. ppb [2]: 0.003 ppb

C=C/C(C)=C\CC=C(C)C [β-(Z)-ocimene]
FD factor WA [1]: 512 | recog. ppb [2]: 34 ppb

CC/C=C\CC=O [(Z)-3-hexenal]
FD factor PS [1]: 128 | recog. ppb [2]: 0.21 ppb

CCCCCC(=O)C(C)C(C)=O (stereo not drawn) [3-methyl-2,4-nonandione]
FD factor PS [1]: 128

CCc1ncc(C)nc1CC [2,3-diethyl-5 methyl pyrazine]
FD factor RS [1]: 128

CCCC(=O)OCC [ethyl butanoate]
FD factor H [1]: 2048 | FD factor PS [1]: 128 | FD factor RS [1]: 32 | FD factor WA [1]: 128 | recog. ppb [2]: 2.4 ppb

CC(=O)/C=C/C1=C(C)CCCC1(C)C [β-ionone]
FD factor M [1]: 32 | FD factor RS [1]: 512 | FD factor WA [1]: 512 | recognition (ppb) [2]: 8.4 ppb | detection (ppb) [2]: 3.5 ppb | recog. ppb [2]: 8.4 ppb

CC(=O)C(C)=O [2,3-butandione]
FD factor PS [1]: 32 | recog. ppb [2]: 2.9 ppb

CC/C=C\CC/C=C/C=O [(E,Z)-2,6-nonadienal]
FD factor PS [1]: 128 | potency within odorant group (footnote *) [3]: *Most potent | recognition (ppb) [2]: 0.0091 ppb | detection (ppb) [2]: 0.0045 ppb | recog. ppb [2]: 0.0091 ppb

CCCCC1CCC(=O)O1 (stereo not drawn) [γ-octalactone]
FD factor H [1]: 512 | FD factor M [1]: 512 | FD factor PS [1]: 128 | FD factor RS [1]: 512 | FD factor WA [1]: 512 | potency within odorant group (footnote *) [3]: *Most potent | recognition (ppb) [2]: 24 ppb | detection (ppb) [2]: 6.5 ppb | recog. ppb [2]: 24 ppb

CCCC1CCCC(=O)O1 (stereo not drawn) [δ-octalactone]
FD factor H [1]: 512 | FD factor M [1]: 128 | FD factor WA [1]: 128

CCCCCC1CCCC(=O)O1 (stereo not drawn) [δ-decalactone]
recog. ppb [2]: 51 ppb

CC(=O)C1=NCCC1 [2-acetyl-1-pyrroline]
FD factor H [1]: 512 | FD factor M [1]: 512 | FD factor PS [1]: 128

CSCCC=O [3-(methylthio)-propanal]
FD factor H [1]: 512 | FD factor WA [1]: 32

CCCC(=O)O [butanoic acid]
FD factor PS [1]: 128 | recog. ppb [2]: 7700 ppb

CCOC(=O)C(C)C [ethyl-2-methypropanoate]
FD factor H [1]: 512 | recog. ppb [2]: 0.22 ppb

CC1=CCC(C(C)(C)S)CC1 (stereo not drawn) [1-p-menthene-8-thiol]
recog. ppb [2]: 0.0001 ppb

C=CC(=C)CCC=C(C)C [myrcene]
FD factor M [1]: 128 | FD factor WA [1]: 128 | recognition (ppb) [2]: 4.9 ppb | detection (ppb) [2]: 1.2 ppb | recog. ppb [2]: 4.9 ppb

COC1=C(C)OC(C)C1=O (stereo not drawn) [4-methoxy-2,5-dimethyl-3(2H)-furanone]
FD factor RS [1]: 128 | recog. ppb [2]: 3400 ppb

CCOC(=O)CC(C)C [ethyl-3-methylbutanoate]
FD factor H [1]: 2048 | recog. ppb [2]: 0.11 ppb

OCCc1ccccc1 [2-phenylethanol]
FD factor H [1]: 128

C=CC=CC=CCC=CCC [1,3,5,8-undecatetraene]
FD factor M [1]: 512 | FD factor RS [1]: 512 | FD factor WA [1]: 128

CC1=C(O)C(=O)C(C)O1 (stereo not drawn) [4-hydroxy-2,5-dimethyl-3(2H)-furanone]
FD factor H [1]: 2048 | FD factor M [1]: 2048 | FD factor PS [1]: 2048 | FD factor RS [1]: 2048 | FD factor WA [1]: 2048 | recog. ppb [2]: 160 ppb

CC1=C(O)C(=O)OC1C (stereo not drawn) [3-hydroxy-4,5-dimethyl-2(5H)-furanone]
potency within odorant group (footnote *) [3]: *Most potent | recognition (ppb) [2]: 1.1 ppb | detection (ppb) [2]: 0.49 ppb | recog. ppb [2]: 1.1 ppb

CCCCCCC1CCC(=O)O1 (stereo not drawn) [γ-decalactone]
recog. ppb [2]: 2.6 ppb

C=C/C(C)=C/CC=C(C)C [β-(E)-ocimene]
FD factor WA [1]: 128 | recog. ppb [2]: 34 ppb

CC(=O)CC(C)(C)S [4-mercapto-4-methyl-2-pentanone]
recognition (ppb) [2]: 0.0001 ppb | recog. ppb [2]: 0.0001 ppb
